# Reference: patent publication US20220105051A1, “COMPOUNDS FOR INCREASING MHC-I EXPRESSION AND MODULATING HISTONE DEACETYLASE ACTIVITY” (Cava Healthcare Inc., priority 2019, published 2022)
# Entries after “also recorded” stand apart in the source; their conditions may differ.
# What was measured:
# [1] = tested on: A9 metastatic tumour cells; test: In vivo tumour trial; set-up: species or system C57BL/6 mice; details: daily i.p. for 12 days; for anti-tumour effect compared among the treatments / tumour volume / tumour growth compared to vehicle control: A9 tumours; for anti-tumour effect compared among the treatments: 5.2 mg/kg; for tumour volume / tumour growth compared to vehicle control / body weight: P02-113 and P03-97-1 5.2 mg/kg, TSA 0.5 mg/kg
# Protocol: The metastatic cell line, A9, was grown in the DMEM, as previously described without, the addition of antibiotics (penicillin and streptomycin, P/S). Once cells reached 75-80% confluence, they were trypsinized (0.05%, Gibco) and washed with HBSS (Hanks balanced salt solution). The cells were counted using the Bio-RAD TC20 automated cell counter and suspended to a concentration of […] in HBSS. Thirty-two synergistic female C57BL/6 mice, between the ages 6-8 weeks, were subcutaneously injected in the right flank with 50 μL containing 5×10^4 A9 metastatic tumour cells. Seven days following tumour inoculation i.p. treatment began daily for 12 days. Four treatment groups were studied, with eight animals per group. […] Body weights were measured three times a week and once tumours developed they were measured with calipers and tumour volume was calculated. Twelve days after starting treatment, mice were euthanized and tumours were collected and weighed. The tumours were then processed for flow cytometry analysis. Tumours were cut into small pieces and incubated RPMI (Gibco; with P/S 0.5%, Sodium pyruvate 1%, and L-glutamine 1%) and 3 mg/mL collagenase A (Roche) for one hour at 37° C. with shaking. Dissociated tumour cells were passed through a 100 μm filter and spun down at 15,000×RCF for 3 minutes. The pellet was washed once in FACs buffer (2% FBS in PBS) and spun down. The pellet was next suspended in red blood cell (RBC) lysis buffer and kept at room temperature for 5 minutes before being neutralized by the addition of 5 ml of PBS and spun down. If pellets were still found to contain RBCs this step was repeated. Once all RBCs were removed cells were suspended in FACs buffer to a concentration of 10^7 cells/mL. A total volume of 200 ul of cells from each tumour were added to a 96 well plate (Falcon) and incubated with Fc Blocker (Biolegend, 1:400) for twenty minutes at 4° C. The 96 well plate was spun down at 1,200 rmp for three minutes and supernatant was removed. The cells were then suspended in 150 ul of FACs buffer containing anti-CD8a (PE-Cy7, 1:200, eBioscience) and CD4 (APC, 1:200, Biolegend) antibodies and incubated at 4° Celsius for 20 minutes. The cells were washed twice and spun down using FACs buffer before being to flow cytometry tubes in a final volume of 200 ul of FACs buffer containing 7AAD (Biolegend 1:200). Flow cytometry was performed on LSRII (BDBiosciences) and analysis was done using FlowJo (Flow cytometry Analysis Software).
# Treatment of tumour-bearing mice with identified compounds. 5×10^4 A9 cells suspended in HBSS were subcutaneously (s.c.) transplanted into the right flank of 32 eight-week-old female C57BI/6 mice, as previously described 75. […] Body weight and tumours (once established) were measured every 2-4 days (more often as tumour size increased). Tumours were measured using calipers and volume was calculated as following: tumour volume=length×width^2. The tumour growth rate was assessed using methods previously described^28.
# class I/II HDACs = test: HDAC-Glo I/II Assay in A9 cells; format: cell-based, murine; details: for HDAC activity at the lowest concentrations: 1 nM-100 nM; for class I/II HDAC activity: 1 nM-1 μM; for HDAC activity at higher concentrations: up to 1 uM
# Protocol: Compounds P02-113 and P03-97-1 were analyzed for their effect on histone deacetylase activity in the A9 cell line, using the HDAC-Glo™ I/II Assay and Screening System (Promega). The linear range was established for the A9 cells in a black-walled, clear-bottomed 96 well plate (PerkinElmer). Cells were diluted to 10^5 cells/mL and serial diluted by two fold, to a final concentration of 98 cells/ml. All dilutions were plated in triplicates in a volume of 100 ul per well. Cells were left overnight at 37° C. for 24 hours before addition of HDAC class I/II reagent. Luminescence was read after 30 minute incubation with HDAC class I/II reagent. After determination of an optimal cell density of 30,000 cells/well, cells were plated in 96 well plate and left for 24 hours at 37° C. Media was used as a blank control, as well a positive control was included consisting of HeLa cells provided in the HDAC assay kit. […] HDAC class I/II reagent was then added and incubated for 30 minutes before luminescence was measured using the Infinite M200 (Tecan) and i-control software (Tecan).
# HDAC assays. To assess the effect of the compounds on the relative activity of histone deacetylase (HDAC) class I and II enzymes in the A9 cell line, we used the HDAC-Glo™ I/II Assay and Screening System (Promega). The linear range was established for the A9 cells following the manufacturer's instructions. Thirty thousand cells per well were plated in clear-bottom 96-well plates (Perkin Elmer) and plates were incubated at 37° C. […] Cell culture media was used as a blank control and HeLa cells provided in the HDAC assay kit were used as a positive control. HDAC class I/II reagent was then added and incubated for 30 minutes before luminescence was measured using the Infinite M200 (Tecan) and i-control software (Tecan).
# [2] = Pharmacokinetics in mouse plasma; format: in vivo; details: 5.2 mg/kg i.p.; for half-life in mouse plasma: Example 3; for half-life / concentration at 5 min: female; for half-life: C57BL/6, ip, mouse plasma, Example 1; for concentration at 5 min: C57BL/6, mouse, plasma, intraperitoneal, read-out: concentration in mouse plasma after 5 minutes
# From the text: To assess the pharmacokinetics (PK) of the curcuphenol analogues, a mass spectrometry assay was developed to measure the compounds in plasma. This assay was created by The Metabolomics Innovation Center (TMIC) at UVic-Genome BC Proteomics Centre located in Victoria, British Columbia. Eight samples were sent to TMIC for PK design for identification of P02-113 and P03-97-1 in mouse plasma. To collect plasma, mice were anesthetized using isoflurane and blood was collected by cardiac puncture. Plasma was isolated from blood in a potassium-EDTA coated Tube with K2E (BD Microtainer) and centrifugation at 10,000×g for 1 minute. Plasma was transferred to a cryovial and stored at −20° C. before being shipped on dry ice. TMIC used a chemical derivatization—UPLC-MMR/MS method to create a quantitative analysis tool for the compounds using dansyl chloride (DAN.CI) as the derivatizing reagent. 13C-labeled DAN.CI was used to produce stable isotope-labeled internal standards (ISs). All tests were performed using an UPLC-4000 QTRAP system with ESI and (+) ion detection using C18 column and acetonitrile-water-formic acid as the mobile phase.
# For the PK analysis of P02-113 and P03-97-1, mice were injected i.p. and anesthetized before blood was collected by cardiac puncture at five time points (5 min, 10 min, 30 min, 1 hour and 6 hour). […] Three female C57BL/6 mice, between the ages 6-8 weeks, were used for each compound for each time point, giving a total […]. All mice were injected at the highest maximum tolerated dose (5.2 mg/kg) and plasma was prepared and stored as previously described above.
# Pharmacokinetic study. […]. Three mice were used for each time point, with a total of […]. Time points were strategically chosen based on the similar structure of the compounds to TSA, an HDACi, which is known to augment TAP and MHC-I expression in metastatic tumours and to be metabolized at a high rate. The chosen time points were 5 minutes, 10 minutes, 1 hour and 6 hours.
Structure (SMILES),anti-tumour effect compared among the treatments [1],tumour volume / tumour growth compared to vehicle control [1],tumour volume / tumour growth compared to vehicle control ([1]; listed as PC-02-113),body weight [1],concentration of peak in HDAC activity (class I/II HDACs),HDAC activity at the lowest concentrations (class I/II HDACs),class I/II HDAC activity (class I/II HDACs),HDAC activity at higher concentrations (class I/II HDACs),level in mouse plasma at the 6 hour time point [2],time at which plasma concentration was half of the 5 minute concentration [2],half-life in mouse plasma [2],half-life [2] [min],concentration at 5 min [2] [ng/mL]
CC(C)=CCCCc1ccc(C)cc1O [P02-113],not found to be as significant as P03-97-1 or TSA; also recorded: slightly larger,reduced; also recorded: statistically significant reduction of tumour volume,suppresses growth of tumors,remained stable; also recorded: no significant changes,around 180 nM,induction of HDAC activity,increase in class I/II HDAC activity,started to reduce it effect at higher concentrations; also recorded: started to reduce the effect at higher concentrations,undetectable levels,10 min,roughly one,< 5,0.4
COc1ccc(C(C)CCC=C(C)C)c(O)c1 (stereo not shown) [P03-97-1],significant anti-tumour effect; also recorded: greater reduction in tumour burden,reduced; also recorded: statistically significant reduction of tumour volume; also recorded: suppresses growth of tumors,,remained stable; also recorded: no significant changes,around 180 nM,induction of HDAC activity,increase in class I/II HDAC activity,maintained peak levels of HDAC activity,undetectable levels,around 20 minutes,roughly one,15,30
